Data on one substance can be found in publication PMC12785583, “Coconut Milk-Derived Bioactive Peptides as Multifunctional Agents Against Hyperglycemia, Oxidative Stress, and Glycation: An Integrated Experimental and Computational Study” (International Journal of Molecular Sciences, 2025).

Like-named read-outs stand apart in the source and are kept apart here.

One series has as its target T1, α-amylase (Sus scrofa, UniProt P00690).
T1 construct: purchased SRL (Sisco Research Laboratories)
T1 sequence (P00690 16-511): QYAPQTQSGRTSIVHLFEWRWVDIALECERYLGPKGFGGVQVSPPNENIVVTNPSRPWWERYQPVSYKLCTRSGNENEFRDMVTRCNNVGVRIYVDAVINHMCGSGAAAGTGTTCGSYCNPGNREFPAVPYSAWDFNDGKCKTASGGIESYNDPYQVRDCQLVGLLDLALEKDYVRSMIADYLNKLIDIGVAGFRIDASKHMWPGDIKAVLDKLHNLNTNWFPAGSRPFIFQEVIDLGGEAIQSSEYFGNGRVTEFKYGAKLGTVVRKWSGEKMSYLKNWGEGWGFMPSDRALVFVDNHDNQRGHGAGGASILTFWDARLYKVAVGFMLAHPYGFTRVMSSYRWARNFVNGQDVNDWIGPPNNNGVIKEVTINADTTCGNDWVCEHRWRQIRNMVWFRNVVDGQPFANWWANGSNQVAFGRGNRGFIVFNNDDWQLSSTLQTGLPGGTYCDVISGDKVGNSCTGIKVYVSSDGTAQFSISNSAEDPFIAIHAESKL
The series can be described thus: enzyme inhibition kinetics (Lineweaver-Burk), α-amylase. Format: biochemical, porcine. Set-up: Vmax: unit not given here. The text has this: (§1) Enzyme inhibition by coconut milk peptide 2 was further characterised for α-glucosidase, α-amylase and aldose reductase by steady-state kinetic analysis. […] In this context, v denotes the initial rate of product formation, whereas [S] denotes the concentration of the chromogenic or natural substrate used in each assay. Michaelis explained how v depends on [S] for each condition, as described by the Michaelis–Menten equation (Equation (2)):(2) v=VmaxS/Km+S Lineweaver–Burk double-reciprocal plots (Equation (3)) were then constructed by plotting 1/v versus 1/[S]:(3) 1/v=Km/Vmax·1/S+1/Vmax Michaelis–Menten parameters (Km and Vmax) and apparent inhibition constants (Ki) were obtained from these Lineweaver–Burk plots.

Another series concerns the target yeast α-glucosidase. Description: α-glucosidase inhibition assay. The class given is biochemical, Saccharomyces cerevisiae. The conditions noted are these: for IC50: read-out: α-Glucosidase Inhibition IC50 (value in bracket) (converted). As for the experimental part:
The α-glucosidase inhibition assay was performed following the method described by Huligere et al.. […] In this assay, one unit of activity was defined as the amount of enzyme required to release one µmol of p-nitrophenol from pNPG per minute under the specified experimental conditions. […] The reaction was maintained at 37 °C for an additional 20 min. Enzyme activity was determined by measuring the absorbance of liberated p-nitrophenol at 405 nm using a microplate reader (Spectramax i3, Molecular Devices, LLC, San Jose, CA, USA). […] IC50 values were determined by relating the percentage inhibition of each sample to its concentration.

A short description of series [1]: DPPH radical scavenging assay. As for the experimental part:
The antioxidant assays of the test compounds were conducted in vitro, following previous studies, using the standard DPPH, ABTS, and superoxide radical scavenging assays. Regarding the DPPH assay, 0.2 mL of the test samples (peptides 1 and 2) at various concentrations was added to 1.2 mL of a 40 μg/mL DPPH solution in methanol. The mixtures were shaken vigorously and incubated in the dark for 20 min, after which the reduction in DPPH absorption was measured at 517 nm. The samples without DPPH and with methanol served as blanks. Ascorbic acid was used as the positive control.
In general terms: The DPPH test is a chemical assay of radical scavenging.

Another series relates to human erythrocytes. The series can be described thus: hemolytic assay. Format: cell-based. As for the experimental part:
The hemolytic potential of the lead peptides was determined following an established erythrocyte hemolysis protocol. In brief, 15 mL of venous blood was drawn from a healthy individual, centrifuged at 3000 rpm for 10 min, and the plasma was discarded. The residual pellet (RBCs) was washed 3 times with PBS (pH 7.4, 0.1 M), and the resultant pellet was resuspended in PBS in a 1:10 ratio. Subsequently, 0.9 mL of the RBC suspension was incubated with 0.1 mL of peptides at various concentrations, a negative control (100 μL PBS + 900 μL RBC suspension), and a positive control (100 μL of 0.5% Triton-X-100 + 900 μL of RBC suspension), and incubated at 37 °C for 24 h. Post incubation, all tubes were centrifuged at 3000 rpm for 10 min. 0.1 mL of the supernatant was then transferred to 96-well plates, and the absorbance of the supernatant was read at 540 nm. […] The corrected values were calculated as Acontrol=Apos−Aneg and Asample=Atest−Aneg where Apos , Aneg and Atest are the absorbance values of the positive control, negative control, and peptide-treated sample (given concentration), respectively.

A short description of series [2]: superoxide radical scavenging assay (NBT). As for the experimental part: After 10 min of incubation at 25 °C in the dark, absorbance was recorded at 560 nm. Samples without NBT served as blanks, and ascorbic acid was used as the positive control. The results were expressed as the effective concentration (EC50) values.
Another series concerns the target aldose reductase (Homo sapiens, UniProt P15121). Description: enzyme inhibition kinetics (Lineweaver-Burk), aldose reductase. Set-up: Vmax: unit not given here. The class given is biochemical.
Source text: as §1

[3] abbreviates: mean ± SE, read-out: Ki (apparent inhibition constant) (converted).

H-ADVFNPR-OH [Peptide 2, ADVFNPR]: the Vmax on α-amylase (IC20—33.55 µg) was 27.75; at α-amylase (IC40—67.10 µg), 26.26; at α-amylase (IC60—100.60 µg), 27.50; at aldose reductase (IC20—8.12 µg) it was 46.64; at aldose reductase (IC40—16.23 µg) it was 46.02; on aldose reductase (IC60—24.35 µg), 45.55. In addition, the Mode of inhibition result on α-amylase (from Lineweaver–Burk plot) and on aldose reductase (from Lineweaver–Burk plot) was “Competitive” throughout. For the same substance, the Ki was 1.64 µM on α-amylase (setting [3]) and 0.954 µM at aldose reductase (setting [3]). Moreover, the entries for the “Vmax (essentially constant)” value at α-amylase (over IC20–IC60) and at aldose reductase (over IC20–IC60) were approximately 27 µM/min and approximately 46 µM/min, respectively. In addition, the IC50 at yeast α-glucosidase (listed as peptide 2) and at yeast α-glucosidase was 40.1 µM in each case. Further, the “α-Glucosidase Inhibition IC50” value at yeast α-glucosidase (mean ± SD) was 32.82 ± 0.17 µg/mL. Also, the “DPPH Radical Scavenging Assay EC50” value in series [1] is on record as 22.14 ± 0.12 µg/mL. Besides, the EC50 – broadly, the midpoint of the concentration-response curve – in series [1] (read-out: DPPH Radical Scavenging Assay EC50 (value in bracket) (converted)) was 27.1 µM; in series [2] (read-out: Superoxide Radical Scavenging Assay EC50 (value in bracket) (converted)), 51.9 µM. Also, the “Hemolytic Assay (HC50)” value in the series with human erythrocytes came to 231.53 ± 0.14 µg/mL. The “Hemolytic Assay (HC50) (value in bracket)” value in the series with human erythrocytes (red cells of human, 24 h) was 283.08 µM. In addition, the “Superoxide Radical Scavenging Assay EC50” value in series [2] is reported as 42.45 ± 0.30 µg/mL.
